Source: the NIST ThermoML archive (doi:10.1016/j.jct.2012.06.020)
Numbers after ± are expanded uncertainties.

Test: mn = molality of the nth substance listed, in mol/kg
Details: 101 kPa, Liquid; for mass density: Vibrating tube method; for speed of sound: OPTIME 1.0 from OPTEL

O=S(=O)([O-])C(F)(F)F.O=S(=O)([O-])C(F)(F)F.O=S(=O)([O-])C(F)(F)F.[Lu+3] [lutetium(III) trifluoromethanesulfonate] + C[S+](C)[O-]
Details	mass density, 293.15 K [kg/m3]	mass density, 298.15 K [kg/m3]	mass density, 303.15 K [kg/m3]	mass density, 313.15 K [kg/m3]	mass density, 323.15 K [kg/m3]	mass density, 333.15 K [kg/m3]	speed of sound, 298.15 K [m/s]
m1 = 0.01878	1108.65 ± 1.2	1103.62 ± 1.1	1098.6 ± 1.1	1088.57 ± 1.1	1078.53 ± 1.1	1068.49 ± 1.1	–
m1 = 0.02625	1112.04 ± 1.2	1107.02 ± 1.2	1101.99 ± 1.1	1091.95 ± 1.1	1081.91 ± 1.1	1071.88 ± 1.1	–
m1 = 0.03372	1115.44 ± 1.2	1110.42 ± 1.2	1105.39 ± 1.2	1095.36 ± 1.1	1085.32 ± 1.1	1075.28 ± 1.1	–
m1 = 0.03373	–	–	–	–	–	–	1479.8 ± 2
m1 = 0.04075	1118.67 ± 1.2	1113.64 ± 1.2	1108.62 ± 1.2	1098.58 ± 1.1	1088.54 ± 1.1	1078.51 ± 1.1	1478.9 ± 2
m1 = 0.05063	1123.23 ± 1.2	1118.2 ± 1.2	1113.17 ± 1.2	1103.14 ± 1.2	1093.11 ± 1.1	1083.07 ± 1.1	1477.6 ± 2
m1 = 0.06739	1131.05 ± 1.2	1126.03 ± 1.2	1121 ± 1.2	1110.97 ± 1.2	1100.94 ± 1.1	1090.91 ± 1.1	1475.5 ± 2
m1 = 0.0825	1138.19 ± 1.2	1133.17 ± 1.2	1128.14 ± 1.2	1118.09 ± 1.2	1108.05 ± 1.2	1098.05 ± 1.1	1473.6 ± 2
m1 = 0.09757	1145.41 ± 1.2	1140.38 ± 1.2	1135.36 ± 1.2	1125.31 ± 1.2	1115.27 ± 1.2	1105.25 ± 1.2	1471.7 ± 2
m1 = 0.1139	1153.31 ± 1.3	1148.28 ± 1.3	1143.26 ± 1.2	1133.2 ± 1.2	1123.17 ± 1.2	1113.14 ± 1.2	1469.6 ± 2
m1 = 0.1294	1160.93 ± 1.3	1155.9 ± 1.3	1150.87 ± 1.3	1140.81 ± 1.2	1130.77 ± 1.2	1120.74 ± 1.2	1467.6 ± 2
m1 = 0.145	1168.67 ± 1.3	1163.64 ± 1.3	1158.61 ± 1.3	1148.56 ± 1.3	1138.52 ± 1.2	1128.5 ± 1.2	1465.7 ± 2
m1 = 0.1599	1176.2 ± 1.3	1171.16 ± 1.3	1166.13 ± 1.3	1156.07 ± 1.3	1146.04 ± 1.3	1136.01 ± 1.2	1463.9 ± 2
